For seven compounds, EC50 results are on record in patent US20250115669A1, “FGFR1/KLB Targeting Agonistic Antigen-Binding Proteins and Conjugates Thereof with GLP-1R Agonistic Peptides” (SANOFI, priority 2020, published 2025).

What all share (assay type): cell-based
One assay has as its target T1, human GLP-1 receptor (Homo sapiens, UniProt P43220).
T1 construct: expressed in transfected cells; host or cells: PSC-HEK-293
The assay can be described thus: HTRF cAMP assay in HEK-293 cells expressing human GLP-1 receptor. The method, then:
(§1) Each vial contained 1.8 ml cells. The vials were slowly frozen to −80° C. in isopropanol, and then transferred in liquid nitrogen for storage.
(§2) Cells were resuspended in assay buffer (cell buffer plus 2 mM IBMX) and adjusted to a cell density of 1 million cells/ml.
(§3) For measurement of cAMP generation, 5 μl cells (final 5000 cells/well) and 5 μl of test compound were added to a 384-well plate, followed by incubation for 30 min at room temperature.
(§4) The cAMP generated was determined using a kit from Cisbio Corp. based on HTRF (Homogenous Time Resolved Fluorescence). The cAMP assay was performed according to manufacturer's instructions (Cisbio).

In assay [1] the target is T2, human glucagon (GCG) receptor (Homo sapiens, UniProt P47871).
T2 construct: expressed in transfected cells; host or cells: PSC-HEK-293
Kind of assay: HTRF cAMP assay in HEK-293 cells expressing human glucagon receptor. On the procedure:
as §1, §2, §3, §4
(TR-FRET usually uses a lanthanide donor and a delayed reading to cut background.)

In another assay the target is T3, human GIP receptor (Homo sapiens, UniProt P48546).
T3 construct: expressed in transfected cells; host or cells: PSC-HEK-293
T3 sequence (P48546 22-466): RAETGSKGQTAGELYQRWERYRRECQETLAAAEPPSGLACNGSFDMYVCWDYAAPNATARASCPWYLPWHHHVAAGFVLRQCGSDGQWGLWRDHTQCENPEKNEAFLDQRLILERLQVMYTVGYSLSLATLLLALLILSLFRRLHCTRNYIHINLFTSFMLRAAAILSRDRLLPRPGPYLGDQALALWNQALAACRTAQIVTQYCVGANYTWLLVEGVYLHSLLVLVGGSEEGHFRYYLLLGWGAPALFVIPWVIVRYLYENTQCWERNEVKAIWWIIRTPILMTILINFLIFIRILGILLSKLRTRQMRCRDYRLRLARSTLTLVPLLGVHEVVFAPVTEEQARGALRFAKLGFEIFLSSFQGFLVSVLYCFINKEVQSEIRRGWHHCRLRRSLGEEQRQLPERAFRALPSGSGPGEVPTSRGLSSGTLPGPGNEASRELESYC
The assay can be described thus: HTRF cAMP assay in HEK-293 cells expressing human GIP receptor. The method, then: as §1, §2, §3, §4

The mark [2] stands for this setting: HEK-293 cells, read-out: HTRF cAMP EC50 Human GLP-1R.
Setting [3] is: HEK-293 cells, read-out: HTRF cAMP EC50 Human GCGR.
[4] abbreviates: HEK-293 cells, read-out: HTRF cAMP EC50 Human GIPR.

pEC50: −log10 of the molar value. Read-outs that look alike come from different tables or passages of the source. Bridge positions count the residues as written; N and C are the ends. Ends that are not written are not given here. Peptide text beside a SMILES is read from it. Where only a bound is given, the exact number is not on record here.

T1 sequence (P43220 24-463): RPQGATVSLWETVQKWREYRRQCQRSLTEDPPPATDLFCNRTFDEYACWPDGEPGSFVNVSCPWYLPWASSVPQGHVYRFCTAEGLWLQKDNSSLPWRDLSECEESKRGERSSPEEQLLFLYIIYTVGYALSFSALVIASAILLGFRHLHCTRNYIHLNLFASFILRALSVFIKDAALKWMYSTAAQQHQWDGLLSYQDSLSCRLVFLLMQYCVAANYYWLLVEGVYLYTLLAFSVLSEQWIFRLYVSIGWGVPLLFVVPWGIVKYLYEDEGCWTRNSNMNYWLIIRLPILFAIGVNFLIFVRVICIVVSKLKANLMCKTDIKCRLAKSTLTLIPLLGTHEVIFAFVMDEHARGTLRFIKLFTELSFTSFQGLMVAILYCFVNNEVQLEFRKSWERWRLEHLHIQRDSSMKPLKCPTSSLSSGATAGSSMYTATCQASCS
T2 sequence (P47871 26-477): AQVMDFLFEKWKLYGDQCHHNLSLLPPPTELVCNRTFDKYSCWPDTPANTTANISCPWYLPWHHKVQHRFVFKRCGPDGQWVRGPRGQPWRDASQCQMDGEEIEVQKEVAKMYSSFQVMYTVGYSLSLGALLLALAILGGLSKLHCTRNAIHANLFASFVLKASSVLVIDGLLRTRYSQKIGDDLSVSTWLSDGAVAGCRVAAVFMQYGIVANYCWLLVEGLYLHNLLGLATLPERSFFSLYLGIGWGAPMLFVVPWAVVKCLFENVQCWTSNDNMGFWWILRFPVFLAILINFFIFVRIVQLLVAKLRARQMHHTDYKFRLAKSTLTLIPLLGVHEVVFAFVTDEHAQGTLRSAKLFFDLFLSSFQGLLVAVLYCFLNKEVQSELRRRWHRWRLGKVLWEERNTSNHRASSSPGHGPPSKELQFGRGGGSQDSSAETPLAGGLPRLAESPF

`CC[C@H](C)[C@H](NC(=O)[C@H](Cc1ccccc1)NC(=O)[C@H](CC(C)C)NC(=O)[C@H](CCC(N)=O)NC(=O)[C@@H](NC(=O)[C@H](C)NC(=O)[C@H](CCC(=O)O)NC(=O)[C@H](CCC(=O)O)NC(=O)[C@H](CCC(=O)O)NC(=O)[C@H](CC(C)C)NC(=O)[C@H](CCC(N)=O)NC(=O)[C@H](CCCCN)NC(=O)[C@H](CO)NC(=O)[C@H](CC(C)C)NC(=O)[C@H](CC(=O)O)NC(=O)[C@H](CO)NC(=O)[C@@H](NC(=O)[C@H](Cc1ccccc1)NC(=O)[C@@H](NC(=O)CNC(=O)[C@H](CCC(=O)O)NC(=O)CNC(=O)[C@H](Cc1c[nH]cn1)NC(=O)CN)[C@@H](C)O)[C@@H](C)O)C(C)C)C(=O)N[C@@H](CCC(=O)O)C(=O)N[C@@H](Cc1c[nH]c2ccccc12)C(=O)N[C@@H](CC(C)C)C(=O)N[C@@H](CCCCN)C(=O)N[C@@H](C)C(=O)NCC(=O)NCC(=O)N1CCC[C@H]1C(=O)N[C@@H](CO)C(=O)N[C@@H](CO)C(=O)NCC(=O)N[C@@H](CCCCN)C(=O)N1CCC[C@H]1C(=O)N1CCC[C@H]1C(=O)N1CCC[C@H]1C(=O)N[C@@H](CCCCN)C(N)=O` [Ab P038] (H-GHGEGTFTSDLSKQLEEEAVQLFIEWLKAGGPSSGKPPPK-NH2; N-terminus assumed): the pEC50 is 10.28 at human GLP-1 receptor (setting [2]), under 8.00 in assay [1] (setting [3]) and under 8.00 at human GIP receptor (setting [4]).
Take `CC[C@H](C)[C@H](NC(=O)[C@H](Cc1ccccc1)NC(=O)[C@H](CC(C)C)NC(=O)[C@H](CCCNC(=N)N)NC(=O)[C@@H](NC(=O)[C@H](C)NC(=O)[C@H](CCC(=O)O)NC(=O)[C@H](CCC(=O)O)NC(=O)[C@H](CCC(=O)O)NC(=O)[C@H](CC(C)C)NC(=O)[C@H](CCC(N)=O)NC(=O)[C@H](CCCCN)NC(=O)[C@H](CO)NC(=O)[C@H](CCCCN)NC(=O)[C@H](CC(=O)O)NC(=O)[C@H](CO)NC(=O)[C@@H](NC(=O)[C@H](Cc1ccccc1)NC(=O)[C@@H](NC(=O)CNC(=O)[C@H](CCC(=O)O)NC(=O)CNC(=O)[C@H](Cc1c[nH]cn1)NC(=O)CN)[C@@H](C)O)[C@@H](C)O)C(C)C)C(=O)N[C@@H](CCC(=O)O)C(=O)N[C@@H](Cc1c[nH]c2ccccc12)C(=O)N[C@@H](CC(C)C)C(=O)N[C@@H](CCCCN)C(=O)N[C@@H](C)C(=O)NCC(=O)NCC(=O)N1CCC[C@H]1C(=O)N[C@@H](CO)C(=O)N[C@@H](CO)C(=O)NCC(=O)N[C@@H](C)C(=O)N1CCC[C@H]1C(=O)N1CCC[C@H]1C(=O)N1CCC[C@H]1C(=O)N[C@@H](CO)C(N)=O` [Ab P021] (H-GHGEGTFTSDKSKQLEEEAVRLFIEWLKAGGPSSGAPPPS-NH2): the pEC50 at human GLP-1 receptor is 10.56; in assay [1] it was under 8.00; on human GIP receptor, under 8.00.
For “HGEGTFTSDLSKQCEEERVQLFIEWLKATGPSSGKPPPKPGC-NH2 (disulfide 14-42) [Ab P035]”, the pEC50 was 10.69 at human GLP-1 receptor (setting [2]), under 8.00 in assay [1] (setting [3]) and under 8.00 on human GIP receptor (setting [4]).
In the case of `CC[C@H](C)[C@H](NC(=O)[C@H](Cc1ccccc1)NC(=O)[C@H](CC(C)C)NC(=O)[C@H](Cc1c[nH]cn1)NC(=O)[C@H](CCC(N)=O)NC(=O)[C@H](C)NC(=O)[C@H](CCC(=O)O)NC(=O)[C@H](CCC(=O)O)NC(=O)[C@H](CCC(=O)O)NC(=O)[C@H](CC(C)C)NC(=O)[C@H](CCC(N)=O)NC(=O)[C@H](CCCCN)NC(=O)[C@H](CO)NC(=O)[C@H](CC(C)C)NC(=O)[C@H](CC(=O)O)NC(=O)[C@H](CO)NC(=O)[C@@H](NC(=O)[C@H](Cc1ccccc1)NC(=O)[C@@H](NC(=O)CNC(=O)[C@H](CCC(=O)O)NC(=O)CNC(=O)[C@H](Cc1c[nH]cn1)NC(=O)CN)[C@@H](C)O)[C@@H](C)O)C(=O)N[C@@H](CCC(=O)O)C(=O)N[C@@H](Cc1c[nH]c2ccccc12)C(=O)N[C@@H](CC(C)C)C(=O)N[C@@H](CCCCN)C(=O)N[C@@H](C)C(=O)NCC(=O)NCC(=O)N1CCC[C@H]1C(=O)N[C@@H](CO)C(=O)N[C@@H](CO)C(=O)NCC(=O)N[C@@H](CCCCN)C(=O)N1CCC[C@H]1C(=O)N1CCC[C@H]1C(=O)N1CCC[C@H]1C(=O)N[C@@H](CCCCN)C(N)=O` [Ab P037] (H-GHGEGTFTSDLSKQLEEEAQHLFIEWLKAGGPSSGKPPPK-NH2; N-terminus assumed), the pEC50 at human GLP-1 receptor (setting [2]) was 9.80; in assay [1] (setting [3]), under 8.00; on human GIP receptor (setting [4]) it was under 8.00.
Consider `CC[C@H](C)[C@H](NC(=O)[C@H](Cc1ccccc1)NC(=O)[C@H](CC(C)C)NC(=O)[C@H](CCCNC(=N)N)NC(=O)[C@@H](NC(=O)[C@H](C)NC(=O)[C@H](CCC(=O)O)NC(=O)[C@H](CCC(=O)O)NC(=O)[C@H](CCC(=O)O)NC(=O)[C@H](CC(C)C)NC(=O)[C@H](CCC(N)=O)NC(=O)[C@H](CCCCN)NC(=O)[C@H](CO)NC(=O)[C@H](CCCCN)NC(=O)[C@H](CC(=O)O)NC(=O)[C@H](CO)NC(=O)[C@@H](NC(=O)[C@H](Cc1ccccc1)NC(=O)[C@@H](NC(=O)CNC(=O)[C@H](CCC(=O)O)NC(=O)CNC(=O)[C@H](Cc1c[nH]cn1)NC(=O)CN)[C@@H](C)O)[C@@H](C)O)C(C)C)C(=O)N[C@@H](C)C(=O)N[C@@H](Cc1c[nH]c2ccccc12)C(=O)N[C@@H](CC(C)C)C(=O)N[C@H](C(=O)N[C@@H](CCCCN)C(N)=O)C(C)C` [Ab P040] (H-GHGEGTFTSDKSKQLEEEAVRLFIAWLVK-NH2; N-terminus assumed), for which the figures for the pEC50 (on human GLP-1 receptor (setting [2]); in assay [1] (setting [3]); at human GIP receptor (setting [4])) were 10.20, under 8.00 and under 8.00, respectively.
`CC[C@H](C)[C@H](NC(=O)[C@H](CO)NC(=O)[C@H](CC(C)C)NC(=O)[C@H](CC(=O)O)NC(=O)[C@H](CO)NC(=O)[C@@H](NC(=O)[C@H](Cc1ccccc1)NC(=O)[C@@H](NC(=O)CNC(=O)[C@H](CCC(=O)O)NC(=O)CNC(=O)[C@@H](N)Cc1c[nH]cn1)[C@@H](C)O)[C@@H](C)O)C(=O)N[C@@H](CCC(N)=O)C(=O)N[C@@H](CC(C)C)C(=O)N[C@@H](CC(=O)O)C(=O)N[C@@H](CCC(=O)O)C(=O)N[C@@H](CCC(=O)O)C(=O)N[C@@H](C)C(=O)N[C@H](C(=O)N[C@@H](CCCNC(=N)N)C(=O)N[C@@H](CC(C)C)C(=O)N[C@@H](Cc1ccccc1)C(=O)N[C@H](C(=O)N[C@@H](CCC(=O)O)C(=O)N[C@@H](Cc1c[nH]c2ccccc12)C(=O)N[C@@H](CC(C)C)C(=O)N[C@@H](CC(C)C)C(=O)N[C@@H](C)C(=O)N[C@H](C(=O)NCC(=O)N1CCC[C@H]1C(=O)N[C@H](C(=O)N[C@@H](CO)C(=O)NCC(=O)N[C@@H](C)C(=O)N1CCC[C@H]1C(=O)N1CCC[C@H]1C(=O)N1CCC[C@H]1C(=O)N[C@@H](CO)C(N)=O)C(C)C)[C@@H](C)O)[C@@H](C)CC)C(C)C` [Ab P005] showed a pEC50 at human GLP-1 receptor of 11.51.
For `CC[C@H](C)[C@H](NC(=O)[C@H](CO)NC(=O)[C@H](CC(C)C)NC(=O)[C@H](CC(=O)O)NC(=O)[C@H](CO)NC(=O)[C@@H](NC(=O)[C@H](Cc1ccccc1)NC(=O)[C@@H](NC(=O)CNC(=O)[C@H](CCC(=O)O)NC(=O)CNC(=O)[C@H](Cc1c[nH]cn1)NC(=O)CN)[C@@H](C)O)[C@@H](C)O)C(=O)N[C@@H](CCC(N)=O)C(=O)N[C@@H](CC(C)C)C(=O)N[C@@H](CCC(=O)O)C(=O)N[C@@H](CCC(=O)O)C(=O)N[C@@H](CCC(=O)O)C(=O)N[C@@H](C)C(=O)N[C@H](C(=O)N[C@@H](CCCNC(=N)N)C(=O)N[C@@H](CC(C)C)C(=O)N[C@@H](Cc1ccccc1)C(=O)N[C@H](C(=O)N[C@@H](CCC(=O)O)C(=O)N[C@@H](Cc1c[nH]c2ccccc12)C(=O)N[C@@H](CC(C)C)C(=O)N[C@@H](CC(C)C)C(=O)N[C@@H](C)C(=O)NCC(=O)NCC(=O)N1CCC[C@H]1C(=O)N[C@@H](CO)C(=O)N[C@@H](CO)C(=O)NCC(=O)N[C@@H](C)C(=O)N1CCC[C@H]1C(=O)N1CCC[C@H]1C(=O)N1CCC[C@H]1C(=O)N[C@@H](CO)C(N)=O)[C@@H](C)CC)C(C)C` [Ab P019], the pEC50 on human GLP-1 receptor was 10.56.

Usually pEC50 stands for the EC50 on a negative log10 scale, so that one unit is a factor of ten.
